According to ChEMBL document CHEMBL3639186, “Modulators of serotonin receptor” (2013):
pKi: −log10 of the molar value.

Biological target: 5-hydroxytryptamine receptor 7 (Rattus norvegicus, UniProt P32305)
Assay: Biological Assay: Compound affinity for the rat 5-HT7 receptor subtype was evaluated by competitive radioligand binding assay using 5-carboxamido[H3]typtamine ([3H]5-CT)(Amersham Biosciences) detection.

5-hydroxytryptamine receptor 7, sequence (P32305 whole entry): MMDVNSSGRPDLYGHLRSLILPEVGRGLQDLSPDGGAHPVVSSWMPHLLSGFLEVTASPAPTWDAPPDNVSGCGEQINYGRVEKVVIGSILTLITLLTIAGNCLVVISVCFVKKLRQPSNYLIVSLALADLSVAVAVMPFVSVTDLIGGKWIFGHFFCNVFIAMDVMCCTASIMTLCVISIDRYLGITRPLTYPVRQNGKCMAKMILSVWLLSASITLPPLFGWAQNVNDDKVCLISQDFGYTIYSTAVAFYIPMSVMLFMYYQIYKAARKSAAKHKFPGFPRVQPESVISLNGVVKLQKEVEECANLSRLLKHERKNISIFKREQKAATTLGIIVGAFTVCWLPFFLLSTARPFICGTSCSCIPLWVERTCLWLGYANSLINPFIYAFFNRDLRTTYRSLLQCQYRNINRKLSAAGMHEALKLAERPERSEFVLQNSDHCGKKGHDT

With `Cc1cc(C#N)c(OC2CNC2)cc1-c1ccccc1` the pKi was no more than 5.00.
